Earlier results in patent EP4101443A1, “HOT-MELT COATED PARTICLES WITH PH-DEPENDENT RELEASE” (HERMES PHARMA GmbH, priority 2021, dated 2022).
Converted amounts (≈) assume the structure as drawn.

Row | Structure (SMILES) | solubility
1 | CC(=O)N[C@@H](CS)C(=O)O [NAC, N-acetylcysteine] | 200 mg/mL (≈ 1230 mM)
2 | CC(=O)Oc1ccccc1C(=O)O [ASA, acetylsalicylic acid] | 2.24 mg/mL (≈ 12.4 mM)
